Structures can show the parent of a compound that is named as a salt.
Legend:
[1] = biological target: T1, Full length human recombinant PIKFYVE (Homo sapiens, UniProt Q9Y2I7); test: Inhibition of PIKfyve (microfluidic electrophoresis kinase assay, PI3P/PS substrate); type: biochemical; settings: 12 concentrations
T1 construct: Full length human recombinant PIKFYVE; purchased Carna Biosciences (Kobe, Japan); host or cells: baculovirus expression system
How it was run: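 Percent inhibition, from 12 concentrations, was derived from the product/(substrate+product) peak ratio separated by microfluidic electrophoresis, normalized to DMSO-only and enzyme-free controls. Reactions ran 3 h at room temperature: 2 nM N-terminal GST-PIKFYVE, 1 μM fluorescent PI3P in PS vesicles, […], HEPES pH 7.5, MgCl2/MnCl2.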

[2] = test system: HEK 293T transfected with plasmids containing TDP-43 Q331K mutation; test: HEK/TDP Survival assay (Cell-Titer-Glo, 48 hrs, maximal effect of rescue); type: cell-based; settings: Homo sapiens, HEK 293T with TDP-43 Q331K, (n) in brackets
Method: HEK/TDP Survival assay: Immortalized human embryonic kidney 293T (HEK 293T) were transfected with plasmids containing TDP-43 Q331K mutation, resulting in an increase in cell death that is biologically relevant to ALS patients. Cell death is measured as reductions in the amount of ATP, an indicator of metabolically active cells, that is quantified by a luminescence Cell-Titer-Glo® (CTG) reagent. Compounds are evaluated in this model for changes in CTG compared to a no treatment group. Increased signal indicates improved survival (rescue) and decreased signal indicates decreased survival.
Cell rescue was measured in a 96-well format with eight different concentrations of the test compound over 48 hours (hrs) with 6 replicates. The Promega Cell-Titer-Glo® Luminescent Cell Viability Assay was used to quantify ATP, an indicator of metabolically active cells (see protocol: https://www.promega.com/-/media/files/resources/protocols/technical-manuals/101/celltiterglo-2-0-assay-protocol.pdf?la=en). The luminescence signal was detected using the PerkinElmer EnVision or Molecular Devices SpectraMax.
The effect of a compound at a given dose on cell viability was determined using a three step procedure. First, Hedge's g for the Cell Titer-Glo luminescence values using six untreated wells on every plate as a control was calculated. […] Finally, values from all compound-dose pairs were corrected for multiple hypothesis testing using the Empirical Bayes framework of Stephens, M. (False discovery rates: a new deal, Biostatistics, 18 [2], 2017, 275-294) yielding credible intervals for the measured effect and associated s values.
Briefly, this method computes a local false sign rate for each experiment. Analogous to the local false discovery rate of Efron, B. (Size, power and false discovery rates, Ann. Statist. 35 [4], 2007, 1351-1377) this value measures the confidence in the sign of each effect (rather than confidence in each effect being non-zero). The s values reported in the previous figures are the expected fraction of errors if estimating the sign of all effects with greater absolute local false sign rate, defined in analogy to the q value of Storey, JD (The positive false discovery rate: a Bayesian interpretation and the q-value, Ann. Statist. 31 [6] 2003, 2013-2035).
Drugs that yielded signed log s values greater than 3 were considered hits. This threshold was determined by a separate calibration experiment in which Cell Titer-Glo® was measured in blank plates consisting of untreated cells to assess the noise inherent in the assay. Data are presented as the maximal effect of rescue obtained from the dose-response curve.

T1 sequence (Q9Y2I7 whole entry): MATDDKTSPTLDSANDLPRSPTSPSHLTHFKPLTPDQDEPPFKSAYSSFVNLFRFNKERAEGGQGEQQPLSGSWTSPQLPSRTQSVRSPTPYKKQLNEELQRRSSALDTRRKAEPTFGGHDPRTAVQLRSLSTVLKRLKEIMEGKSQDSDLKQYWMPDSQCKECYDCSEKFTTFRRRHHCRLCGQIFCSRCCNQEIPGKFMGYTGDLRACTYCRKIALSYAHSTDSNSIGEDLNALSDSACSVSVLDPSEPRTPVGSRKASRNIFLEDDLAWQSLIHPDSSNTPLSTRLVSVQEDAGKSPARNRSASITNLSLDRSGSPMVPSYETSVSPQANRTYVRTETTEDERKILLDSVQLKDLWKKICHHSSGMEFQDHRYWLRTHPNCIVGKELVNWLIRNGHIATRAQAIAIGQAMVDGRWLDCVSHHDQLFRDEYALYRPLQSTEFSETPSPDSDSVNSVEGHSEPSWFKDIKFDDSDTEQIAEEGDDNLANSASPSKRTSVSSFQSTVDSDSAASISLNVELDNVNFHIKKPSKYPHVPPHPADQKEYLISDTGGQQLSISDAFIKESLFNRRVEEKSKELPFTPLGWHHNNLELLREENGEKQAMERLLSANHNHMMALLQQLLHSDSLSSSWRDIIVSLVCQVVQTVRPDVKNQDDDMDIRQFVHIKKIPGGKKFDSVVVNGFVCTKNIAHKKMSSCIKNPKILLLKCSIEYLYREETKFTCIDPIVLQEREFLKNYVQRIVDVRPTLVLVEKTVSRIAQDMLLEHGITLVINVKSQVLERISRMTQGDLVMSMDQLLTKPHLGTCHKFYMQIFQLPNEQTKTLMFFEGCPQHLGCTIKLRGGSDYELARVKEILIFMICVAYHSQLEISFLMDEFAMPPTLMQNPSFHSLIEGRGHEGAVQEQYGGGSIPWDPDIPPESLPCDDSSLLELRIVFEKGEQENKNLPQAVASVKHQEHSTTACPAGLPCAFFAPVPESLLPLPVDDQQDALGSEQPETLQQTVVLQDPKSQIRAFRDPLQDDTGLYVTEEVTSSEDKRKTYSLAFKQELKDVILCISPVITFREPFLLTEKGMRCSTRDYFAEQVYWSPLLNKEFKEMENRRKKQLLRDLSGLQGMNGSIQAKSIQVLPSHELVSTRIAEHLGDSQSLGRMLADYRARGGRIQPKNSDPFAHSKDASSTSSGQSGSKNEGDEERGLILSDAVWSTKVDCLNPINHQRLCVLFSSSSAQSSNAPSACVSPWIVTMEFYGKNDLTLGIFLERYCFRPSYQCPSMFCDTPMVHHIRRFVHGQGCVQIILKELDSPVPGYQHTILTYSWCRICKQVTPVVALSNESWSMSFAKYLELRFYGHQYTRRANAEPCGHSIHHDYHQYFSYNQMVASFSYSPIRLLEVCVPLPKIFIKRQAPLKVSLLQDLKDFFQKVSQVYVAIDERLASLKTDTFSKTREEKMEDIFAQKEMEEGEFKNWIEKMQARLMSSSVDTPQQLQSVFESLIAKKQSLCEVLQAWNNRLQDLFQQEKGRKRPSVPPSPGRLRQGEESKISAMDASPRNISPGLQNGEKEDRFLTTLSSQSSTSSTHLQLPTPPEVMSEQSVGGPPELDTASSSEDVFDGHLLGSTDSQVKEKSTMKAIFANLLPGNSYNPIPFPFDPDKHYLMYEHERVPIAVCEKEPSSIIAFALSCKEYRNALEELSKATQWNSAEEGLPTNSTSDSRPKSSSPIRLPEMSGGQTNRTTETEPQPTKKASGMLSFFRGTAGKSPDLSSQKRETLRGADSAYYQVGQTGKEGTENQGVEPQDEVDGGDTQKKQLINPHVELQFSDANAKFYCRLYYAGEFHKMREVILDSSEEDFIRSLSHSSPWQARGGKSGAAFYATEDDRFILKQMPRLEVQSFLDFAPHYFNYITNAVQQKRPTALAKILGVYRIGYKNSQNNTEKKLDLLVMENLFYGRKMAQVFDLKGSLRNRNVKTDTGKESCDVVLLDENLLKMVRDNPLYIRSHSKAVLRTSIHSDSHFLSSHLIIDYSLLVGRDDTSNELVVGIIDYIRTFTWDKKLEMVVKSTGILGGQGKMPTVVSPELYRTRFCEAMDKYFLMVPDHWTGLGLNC

c1ccc(-c2cc(Nc3nc(N4CCOCC4)c4oc(-c5ccncc5)cc4n3)[nH]n2)cc1 [Compound 1, 4-morpholino-N-(3-phenyl-1H-pyrazol-5-yl)-6-(pyridin-4-yl)furo[3,2-d]pyrimidin-2-amine hydrochloride]
IC50 [1]: 1.4 nM | EC50 [2]: 14 nM

— patent US20230146395A1, “Substituted Pyrimidines and Uses Thereof” (Verge Analytics, Inc., priority 2020, published 2023)
